By EC50 is commonly meant the concentration needed to bring the measured effect to its halfway point.

Assay [1] deals with HCV genotype 1a (H77 strain) replicon in HUH-7 cells. As to the kind of experiment: HCV replicon luciferase reporter assay, genotype 1a. In kind it is cell-based. The conditions noted are these: Hepatitis C virus, Huh-7, 72 h, HCV genotype 1a replicon luciferase, 3 days incubation, read-out: LE_1a (EC50, range). The method, boiled down: (§1)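 Replicon inhibition for both genotypes was measured as Renilla luciferase signal (EnduRen, 7.5 μM final, 2 h) after 3-day, 37° C exposure of replicon-bearing HUH-7 cells in 4% FCS DMEM, 0.5% DMSO. The 1b construct carries S1179I; the 1a H77 construct carries P1496L and S2204I. Twenty-point, 3-fold dilutions were fitted four-parametrically for EC50, and CC50 was taken from multiplexed Cell Titer-Blue.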
For orientation: Replicon systems follow genome replication, usually without infectious particles.

Assay [2] deals with HCV genotype 1b (Con1) replicon in HUH-7 cells. Briefly: HCV replicon luciferase reporter assay, genotype 1b. It is filed as cell-based. The conditions noted are these: Hepatitis C virus, Huh-7, 72 h, HCV genotype 1b replicon luciferase, 3 days incubation, read-out: LE_1b (EC50, range). The method, boiled down: as §1
The next assay deals with HCV. The conditions noted are these: combination therapy, HCV infected patients; cited from earlier work.

As to `CCOc1cc2ccccc2c(O[C@@H]2C[C@H]3C(=O)N[C@]4(C(=O)NS(=O)(=O)C5(C)CC5)C[C@H]4/C=C\CC[C@@H](C)C[C@@H](C)[C@H](NC(=O)OC(C)(C)C(C)(F)F)C(=O)N3C2)n1` [Compound 6102, 3,3-difluoro-2-methylbutan-2-yl((2R,6S,7R,9R,13aS,14aR,16aS,Z)-2-((3-ethoxyisoquinolin-1-yl)oxy)-7,9-dimethyl-14a-(((1-methylcyclopropyl)sulfonyl)carbamoyl)-5,16-dioxo-1,2,3,5,6,7,8,9,10,11,13a,14,14a,15,16,16a-hexadecahydrocyclopropa[e]pyrrolo[1,2-a][1,4]diazacyclopentadecin-6-yl)carbamate], the results for the EC50 in assay [1] and in assay [2] were 0.51 to 1 nM and 0.1 to 0.5 nM, respectively. Turning to `CC(C)Oc1cc2ccccc2c(O[C@@H]2C[C@H]3C(=O)N[C@]4(C(=O)NS(=O)(=O)C5(C)CC5)C[C@H]4/C=C\CC[C@@H](C)C[C@@H](C)[C@H](NC(=O)OC(C)(C)C(F)(F)F)C(=O)N3C2)n1` [Compound 6104, 1,1,1-trifluoro-2-methylpropan-2-yl((2R,6S,7R,9R,13aS,14aR,16aS,Z)-2-((3-isopropoxyisoquinolin-1-yl)oxy)-7,9-dimethyl-14a-(((1-methylcyclopropyl)sulfonyl)carbamoyl)-5,16-dioxo-1,2,3,5,6,7,8,9,10,11,13a,14,14a,15,16,16a-hexadecahydrocyclopropa[e]pyrrolo[1,2-a][1,4]diazacyclopentadecin-6-yl)carbamate], the values for the concentration giving a half-maximal response (EC50) in assay [1] and in assay [2] were 1.01 to 5 nM and 0.51 to 1 nM, respectively. As to `CC(C)Oc1cc2ccccc2c(O[C@@H]2C[C@H]3C(=O)N[C@]4(C(=O)NS(=O)(=O)C5(C)CC5)C[C@H]4/C=C\CC[C@H](C)C[C@@H](C)[C@H](NC(=O)OC(C)(C)C(C)(F)F)C(=O)N3C2)n1` [Compound 6105, 3,3-difluoro-2-methylbutan-2-yl((2R,6S,7R,9S,13aS,14aR,16aS,Z)-2-((3-isopropoxyisoquinolin-1-yl)oxy)-7,9-dimethyl-14a-(((1-methylcyclopropyl)sulfonyl)carbamoyl)-5,16-dioxo-1,2,3,5,6,7,8,9,10,11,13a,14,14a,15,16,16a-hexadecahydrocyclopropa[e]pyrrolo[1,2-a][1,4]diazacyclopentadecin-6-yl)carbamate], the 50% effective concentration (EC50) fell in the range of 5.01 to 35 nM in assay [1] and 1.01 to 5 nM in assay [2]. For `CC(C)Oc1cc2ccccc2c(O[C@@H]2C[C@H]3C(=O)N[C@]4(C(=O)NS(=O)(=O)C5(C)CC5)C[C@H]4/C=C\CC[C@@H](C)C[C@@H](C)[C@H](NC(=O)OC(C)(C)C(C)(F)F)C(=O)N3C2)n1` [Compound 6106, 3,3-difluoro-2-methylbutan-2-yl((2R,6S,7R,9R,13aS,14aR,16aS,Z)-2-((3-isopropoxyisoquinolin-1-yl)oxy)-7,9-dimethyl-14a-(((1-methylcyclopropyl)sulfonyl)carbamoyl)-5,16-dioxo-1,2,3,5,6,7,8,9,10,11,13a,14,14a,15,16,16a-hexadecahydrocyclopropa[e]pyrrolo[1,2-a][1,4]diazacyclopentadecin-6-yl)carbamate] the same measures were 1.01 to 5 nM and 0.1 to 0.5 nM. Take `CCOc1cc2ccccc2c(O[C@@H]2C[C@H]3C(=O)N[C@]4(C(=O)NS(=O)(=O)C5(CF)CC5)C[C@H]4/C=C\CC[C@@H](C)C[C@@H](C)[C@H](NC(=O)OC(C)(C)C)C(=O)N3C2)n1` [Compound 6108, tert-butyl ((2R,6S,7R,9R,13aS,14aR,16aS,Z)-2-((3-ethoxyisoquinolin-1-yl)oxy)-14a-(((1-(fluoromethyl)cyclopropyl)sulfonyl)carbamoyl)-7,9-dimethyl-5,16-dioxo-1,2,3,5,6,7,8,9,10,11,13a,14,14a,15,16,16a-hexadecahydrocyclopropa[e]pyrrolo[1,2-a][1,4]diazacyclopentadecin-6-yl)carbamate]: the concentration giving a half-maximal response (EC50) in assay [1] lay in the range of 0.51 to 1 nM; in assay [2], 0.1 to 0.5 nM. Turning to `CC(C)Oc1cc2ccccc2c(O[C@@H]2C[C@H]3C(=O)N[C@]4(C(=O)NS(=O)(=O)C5(CF)CC5)C[C@H]4/C=C\CC[C@@H](C)C[C@@H](C)[C@H](NC(=O)OC(C)(C)C)C(=O)N3C2)n1` [Compound 6110, tert-butyl ((2R,6S,7R,9R,13aS,14aR,16aS,Z)-14a-(((1-(fluoromethyl)cyclopropyl)sulfonyl)carbamoyl)-2-((3-isopropoxyisoquinolin-1-yl)oxy)-7,9-dimethyl-5,16-dioxo-1,2,3,5,6,7,8,9,10,11,13a,14,14a,15,16,16a-hexadecahydrocyclopropa[e]pyrrolo[1,2-a][1,4]diazacyclopentadecin-6-yl)carbamate], the concentration for a half-maximal effect (EC50) was 1.01 to 5 nM in assay [1] and 0.51 to 1 nM in assay [2]. `CCOc1cc2ccccc2c(O[C@@H]2C[C@H]3C(=O)N[C@]4(C(=O)NS(=O)(=O)C5(CF)CC5)C[C@H]4/C=C\CC[C@@H](C)C[C@@H](C)[C@H](NC(=O)OC(C)(C)C(F)(F)F)C(=O)N3C2)n1` [Compound 6112, 1,1,1-trifluoro-2-methylpropan-2-yl((2R,6S,7R,9R,13aS,14aR,16aS,Z)-2-((3-ethoxyisoquinolin-1-yl)oxy)-14a-(((1-(fluoromethyl)cyclopropyl)sulfonyl)carbamoyl)-7,9-dimethyl-5,16-dioxo-1,2,3,5,6,7,8,9,10,11,13a,14,14a,15,16,16a-hexadecahydrocyclopropa[e]pyrrolo[1,2-a][1,4]diazacyclopentadecin-6-yl)carbamate]: the concentration for a half-maximal effect (EC50) in assay [1] lay within 1.01 to 5 nM; in assay [2], 0.51 to 1 nM. Consider `CCOc1cc2ccccc2c(O[C@@H]2C[C@H]3C(=O)N[C@]4(C(=O)NS(=O)(=O)C5(CF)CC5)C[C@H]4/C=C\CC[C@@H](C)C[C@@H](C)[C@H](NC(=O)OC(C)(C)C(C)(F)F)C(=O)N3C2)n1` [Compound 6114, 3,3-difluoro-2-methylbutan-2-yl((2R,6S,7R,9R,13aS,14aR,16aS,Z)-2-((3-ethoxyisoquinolin-1-yl)oxy)-14a-(((1-(fluoromethyl)cyclopropyl)sulfonyl)carbamoyl)-7,9-dimethyl-5,16-dioxo-1,2,3,5,6,7,8,9,10,11,13a,14,14a,15,16,16a-hexadecahydrocyclopropa[e]pyrrolo[1,2-a][1,4]diazacyclopentadecin-6-yl)carbamate], for which the results for the EC50 in assay [1] and in assay [2] were 1.01 to 5 nM and 0.1 to 0.5 nM, respectively. For `CC(C)Oc1cc2ccccc2c(O[C@@H]2C[C@H]3C(=O)N[C@]4(C(=O)NS(=O)(=O)C5(CF)CC5)C[C@H]4/C=C\CC[C@@H](C)C[C@@H](C)[C@H](NC(=O)OC(C)(C)C(F)(F)F)C(=O)N3C2)n1` [Compound 6116, 1,1,1-trifluoro-2-methylpropan-2-yl((2R,6S,7R,9R,13aS,14aR,16aS,Z)-14a-(((1-(fluoromethyl)cyclopropyl)sulfonyl)carbamoyl)-2-((3-isopropoxyisoquinolin-1-yl)oxy)-7,9-dimethyl-5,16-dioxo-1,2,3,5,6,7,8,9,10,11,13a,14,14a,15,16,16a-hexadecahydrocyclopropa[e]pyrrolo[1,2-a][1,4]diazacyclopentadecin-6-yl)carbamate] the same measures were 1.01 to 5 nM and 1.01 to 5 nM. For `CC(C)Oc1cc2ccccc2c(O[C@@H]2C[C@H]3C(=O)N[C@]4(C(=O)NS(=O)(=O)C5(CF)CC5)C[C@H]4/C=C\CC[C@@H](C)C[C@@H](C)[C@H](NC(=O)OC(C)(C)C(C)(F)F)C(=O)N3C2)n1` [Compound 6118, 3,3-difluoro-2-methylbutan-2-yl((2R,6S,7R,9R,13aS,14aR,16aS,Z)-14a-(((1-(fluoromethyl)cyclopropyl)sulfonyl)carbamoyl)-2-((3-isopropoxyisoquinolin-1-yl)oxy)-7,9-dimethyl-5,16-dioxo-1,2,3,5,6,7,8,9,10,11,13a,14,14a,15,16,16a-hexadecahydrocyclopropa[e]pyrrolo[1,2-a][1,4]diazacyclopentadecin-6-yl)carbamate] the same measures were 1.01 to 5 nM and 1.01 to 5 nM. For alpha-interferon and ribavirin, in the assay with HCV, the sustained efficacy is given as 40 % of patients.

The values above are taken from patent publication US9499550B2 (BRISTOL-MYERS SQUIBB COMPANY, priority 2012, dated 2016).
